For data set [1], the system named is Splenocyte. The data set can be described thus: Immunostimulatory activity in mouse splenocyte assessed as fold increase in IL-12 synthesis at 10 to 40 mg/kg measured after 1 week by RT-PCR analysis. In kind it is functional. Particulars: dose 10-40 mg/kg; time 1 weeks.
A short description of data set [2]: Toxicity in golden hamster infected with Leishmania donovani assessed as reduction in serum AST level at 40 mg/kg ,po and measured after 28 days post infection (reference value: 82.72 IU/L). In kind it is organism-based, Mesocricetus auratus. Conditions: in vivo, 672 h, time 28 day.
A short description of data set [3]: Toxicity in BALB/c mouse assessed as effect on body weight at 10 to 40 mg/kg, po measured after 1 week. It is filed as organism-based. Particulars: in vivo, 168 h, dose 10-40 mg/kg, time 1 weeks.
Data set [4] concerns Leishmania donovani. The data set can be described thus: Antileishmanial activity against amastigote form of Leishmania donovani infected in BALB/c mouse assessed as inhibition of parasite growth in liver at 40 mg/kg, po measured after 1 week post treatment by geimsa staining based analysis relative to control. In kind it is functional. On the set-up: scale not given: the % may be the effect or the level left. Conditions: time 1 weeks.

Data set [5] in a line: Renal toxicity in golden hamster assessed as effect on urea level at 40 mg/kg, po measured after 28 days post infection. In kind it is organism-based, Mesocricetus auratus. Conditions: in vivo, 672 h, time 28 day.
Data set [6] has as its system Leishmania donovani. The data set can be described thus: Antileishmanial activity against Leishmania donovani promastigotes measured after 48 hrs by MTT assay. In kind it is functional, organism-based. (In general: Formazan colour is commonly taken as a measure of viable cells.)
Data set [7] is described as follows: Stability of the compound in stimulated gastric fluid at 10 ug/ml at pH 1.2 measured upto 120 min by HPLC analysis. Conditions: simulated gastric fluid, at 10 µg/mL, read-out: Stability. In kind it is ADME.
The subject of data set [8] is Leishmania donovani. The data set can be described thus: Antileishmanial activity against amastigote form of Leishmania donovani infected in BALB/c mouse assessed as inhibition of parasite growth in liver at 20 mg/kg, po measured after 1 week post treatment by geimsa staining based analysis relative to control. It is filed as functional. Set-up: scale not given: the % may be the effect or the level left. Particulars: time 1 weeks.

The nature of data set [9]: Toxicity in golden hamster infected with Leishmania donovani assessed as reduction in serum ALT level at 40 mg/kg ,po and measured after 28 days post infection (reference value: 81.58 IU/L). In kind it is organism-based, Mesocricetus auratus. Conditions: in vivo, 672 h, time 28 day.
Data set [10] in a line: Stability of the compound in Tris-buffer at 10 ug/ml at pH 7.4 measured upto 120 min by HPLC analysis. In kind it is physicochemical. Particulars: at 10 µg/mL, read-out: Stability.
The subject of data set [11] is J774. The data set can be described thus: Cytotoxicity against mouse J774 cells at 50 uM incubated for 72 hrs by MTT assay relative to control. It is filed as toxicity, cell-based. Particulars: j774, 72 h.
A short description of data set [12]: Selectivity index, ratio of CC50 for mouse J774 macrophage to IC50 for Leishmania donovani amastigotes infected in J774 macrophage. Conditions: J774 macrophages, read-out: Ratio CC50/IC50. It is filed as toxicity.
In data set [13] the test system is Leishmania donovani. The data set can be described thus: Antileishmanial activity against Leishmania donovani infected in golden hamster assessed as inhibition of parasite growth in liver at 40 mg/kg, po administered for 7 days and measured after 28 days by giemsa staining based analysis relative to control. In kind it is functional. Particulars: time 28 day. On the set-up: scale not given: the % may be the effect or the level left.

For data set [14], the system named is J774. The data set can be described thus: Cytotoxicity against mouse J774 cells at 12.5 uM incubated for 72 hrs by MTT assay relative to control. In kind it is toxicity, cell-based. Particulars: j774, 72 h.
Data set [15] concerns Leishmania donovani. The data set can be described thus: Antileishmanial activity against Leishmania donovani infected in golden hamster assessed as inhibition of parasite growth in spleen at 80 mg/kg, po administered for 7 days and measured after 28 days by giemsa staining based analysis relative to control. In kind it is functional. On the set-up: scale not given: the % may be the effect or the level left. Conditions: time 28 day.

Data set [16] has as its system J774. Put plainly: Cytotoxicity against mouse J774 cells at 25 uM incubated for 72 hrs by MTT assay relative to control. It is filed as toxicity, cell-based. Conditions: j774, 72 h.
Data set [17] relates to Leishmania donovani. Put plainly: Antileishmanial activity against amastigote form of Leishmania donovani infected in BALB/c mouse assessed as inhibition of parasite growth in spleen at 10 mg/kg, po measured after 1 week post treatment by geimsa staining based analysis relative to control. In kind it is functional. Set-up: scale not given: the % may be the effect or the level left. Particulars: time 1 weeks.

Data set [18] in a line: Stability of the compound in stimulated intestinal fluid at 10 ug/ml at pH 6.8 measured after 120 min by HPLC analysis. It is filed as ADME. Conditions: simulated intestinal fluid, at 10 µg/mL, read-out: Stability.
Data set [19] relates to J774. The data set can be described thus: Cytotoxicity against mouse J774 macrophage incubated for 72 hrs by MTT assay. It is filed as functional.
Data set [20] has as its system Leishmania donovani. The data set can be described thus: Antileishmanial activity against amastigote form of Leishmania donovani infected in BALB/c mouse assessed as inhibition of parasite growth in spleen at 20 mg/kg, po measured after 1 week post treatment by geimsa staining based analysis relative to control. Particulars: time 1 weeks. On the set-up: scale not given: the % may be the effect or the level left. In kind it is functional.

The subject of data set [21] is Leishmania donovani. The data set can be described thus: Antileishmanial activity against amastigote form of Leishmania donovani infected in BALB/c mouse assessed as inhibition of parasite growth in liver at 10 mg/kg, po measured after 1 week post treatment by geimsa staining based analysis relative to control. In kind it is functional. Conditions: time 1 weeks. Set-up: scale not given: the % may be the effect or the level left.

The nature of data set [22]: Toxicity in BALB/c mouse assessed as effect on skin texture at 10 to 40 mg/kg, po measured after 1 week. Conditions: in vivo, 168 h, dose 10-40 mg/kg, time 1 weeks. It is filed as organism-based.
Data set [23] deals with Leishmania donovani. Put plainly: Antileishmanial activity against Leishmania donovani infected in golden hamster assessed as inhibition of parasite growth in liver at 80 mg/kg, po administered for 7 days and measured after 28 days by giemsa staining based analysis relative to control. It is filed as functional. On the set-up: scale not given: the % may be the effect or the level left. Conditions: time 28 day.

Data set [24] relates to Leishmania donovani. Put plainly: Antileishmanial activity against amastigote form of Leishmania donovani infected in BALB/c mouse assessed as inhibition of parasite growth in spleen at 40 mg/kg, po measured after 1 week post treatment by geimsa staining based analysis relative to control. In kind it is functional. Set-up: scale not given: the % may be the effect or the level left. Conditions: time 1 weeks.

Data set [25] in a line: Renal toxicity in golden hamster assessed as effect on creatinine level at 40 mg/kg, po measured after 28 days post infection. It is filed as organism-based, Mesocricetus auratus. Particulars: in vivo, 672 h, time 28 day.
Data set [26] relates to Leishmania donovani. Put plainly: Antileishmanial activity against Leishmania donovani amastigotes infected in J774 macrophage assessed as inhibition of parasite growth at 25 uM incubated for 48 hrs by luciferase assay relative to control. On the set-up: scale not given: the % may be the effect or the level left. It is filed as functional.
Data set [27] relates to Leishmania donovani. Put plainly: Antileishmanial activity against Leishmania donovani infected in golden hamster assessed as inhibition of parasite growth in spleen at 40 mg/kg, po administered for 7 days and measured after 28 days by giemsa staining based analysis relative to control. In kind it is functional. On the set-up: scale not given: the % may be the effect or the level left. Particulars: time 28 day.

Data set [28] relates to Leishmania donovani. The data set can be described thus: Antileishmanial activity against Leishmania donovani amastigotes infected in J774 macrophage assessed as inhibition of parasite growth incubated for 48 hrs by luciferase assay. In kind it is functional, organism-based. Particulars: J774, 48 h.
Data set [29] has as its system Splenocyte. The data set can be described thus: Immunostimulatory activity in mouse splenocyte assessed as decrease in IL-10 secretion at 10 to 40 mg/kg measured after 1 week by RT-PCR analysis relative to control. Set-up: scale not given: the % may be the effect or the level left. Particulars: dose 10-40 mg/kg, time 1 weeks. It is filed as functional.
The test system of data set [30] is Leishmania donovani. The data set can be described thus: Antileishmanial activity against Leishmania donovani promastigotes at 25 uM measured after 48 hrs by MTT assay relative to control. It is filed as functional.
Data set [31] is described as follows: Renal toxicity in golden hamster assessed as effect on creatinine level at 30 mg/kg, po measured after 28 days post infection. Conditions: in vivo, 672 h, time 28 day. In kind it is organism-based, Mesocricetus auratus.
Data set [32] in a line: Toxicity in golden hamster infected with Leishmania donovani assessed as reduction in serum ALT level at 30 mg/kg ,po and measured after 28 days post infection (reference value: 81.58 IU/L). Conditions: in vivo, 672 h, time 28 day. In kind it is organism-based, Mesocricetus auratus.
A short description of data set [33]: Toxicity in golden hamster infected with Leishmania donovani assessed as reduction in serum AST level at 30 mg/kg ,po and measured after 28 days post infection (reference value: 82.72 IU/L). In kind it is organism-based, Mesocricetus auratus. Particulars: in vivo, 672 h, time 28 day.
Data set [34] in a line: Renal toxicity in golden hamster assessed as effect on urea level at 30 mg/kg, po measured after 28 days post infection. It is filed as organism-based, Mesocricetus auratus. Particulars: in vivo, 672 h, time 28 day.
Data set [35] concerns Leishmania donovani. Put plainly: Antileishmanial activity against Leishmania donovani infected in golden hamster assessed as elimination of organ parasite burden at 30 mg/kg, po administered for 7 days and measured after 28 days by giemsa staining based analysis relative to control. It is filed as functional. Conditions: time 28 day.

Broadly, the IC50 is the point on the concentration scale where inhibition reaches its midpoint. By CC50 is commonly meant the concentration giving 50% cytotoxicity.

Each structure is given as a SMILES string.

For the compound `CCn1c(-c2ccc(OCC(=O)Nc3ccccc3)cc2)nc2ccccc2c1=O`, in the data set on Splenocyte [1], the “fold change (FC)” value is listed as 2.03. In addition, the Activity in [2] was 119.82 IU/L; in [3], “Non-Toxic”; in the data set with Leishmania donovani [4], 77.3%; in data set [5], “Non-Toxic”; in the data set on Leishmania donovani [8], 54.4%; in data set [9], 100.8 IU/L. Also, the Activity with J774 [11] is 42.29%; with Leishmania donovani [13] it was 46.1%; in the data set on J774 [14] it was 84.82%; in the data set on Leishmania donovani [15], 75.7%; in the data set with J774 [16], 77.94%; in the data set on Leishmania donovani [17] it was 28.1%. Further, the Activity in the data set on Leishmania donovani [20] was 53.3%; with Leishmania donovani [21], 29.8%; in [22] it was “Non-Toxic”; with Leishmania donovani [23], 77.1%; in the data set with Leishmania donovani [24], 74.1%; in data set [25], “Non-Toxic”. The Activity is on record as 80.66% with Leishmania donovani [26], 53.9% in the data set on Leishmania donovani [27], 23.68% in the data set on Splenocyte [29] and 84.61% in the data set on Leishmania donovani [30]. The IC50 in the data set with Leishmania donovani [6] amounted to 5.76 µM; in the data set on Leishmania donovani [28], 6.02 µM. Further, the remaining at 2 h, 10 ug/ml in data set [7] is 88.8%; in [10], 91.6%; in data set [18], 89.6%. The selectivity ratio in [12] stood at 12.1. For the same compound, half-maximal cytotoxicity with J774 [19] (CC50) was put at 72.9 µM.

In the case of `CCCCCCCCCCCCCCCCOP(=O)([O-])OCC[N+](C)(C)C` [MILTEFOSINE], the Activity entry in [31] is reported as “Non-Toxic”; in data set [32] it was 20 IU/L; with Leishmania donovani [8], 97.23%; in the data set with J774 [11] it was 53.21%; with J774 [14], 85.44%; in [33] it was 25 IU/L. In addition, the Activity in the data set on J774 [16] is listed as 76.74%; in the data set with Leishmania donovani [20], 98.51%; in data set [34] it was “Non-Toxic”; with Leishmania donovani [35], 100%. Besides, the concentration for half-maximal inhibition (IC50) in the data set with Leishmania donovani [6] stood at 6.91 µM; in the data set on Leishmania donovani [28] it was 11 µM. In addition, in [12], the selectivity ratio turned out to be 6.21. Moreover, half-maximal cytotoxicity in the data set with J774 [19] (CC50) was put at 68 µM.

The values are drawn from ChEMBL document CHEMBL5620379, “Discovery, SAR and mechanistic studies of quinazolinone-based acetamide derivatives in experimental visceral leishmaniasis” (Eur J Med Chem, 2023).
